Test results published in US9669100B2, “Polymer support for the distribution of a naturally crystalline substance and production method” (priority 2013, dated 2017).

Legend:
[1] = Stability of the active solution (limpid, no recrystallisation); format: physicochemical; conditions: ESTASOL/ARLASOLVE DMI plus refined coconut oil; after stirring (30 min Example 1, 20 min Example 3)
Description: In a 1 liter beaker, the following products are successively introduce with stirring:
And then introduce by sprinkling while still stirring:
After completely dissolving, pour while still stirring:
300 g refined coconut oil.
In a 1 liter beaker, the following are successively added under stirring:
100 g refined coconut oil.
All is stirred for 20 minutes until the active solution becomes limpid.

[2] = Solubilisation of naturally crystalline substances in the solvent mixture (dibasic esters / dimethyl isosorbide); format: physicochemical; conditions: solvent mixture solvent/cosolvent

## Cn1c(=O)c2c(ncn2C)n(C)c1=O [Caffeine]
[1]
  state of the active solution after preparation: does not recrystallise

## CC1(C)[C@H](C(=O)O[C@H](C#N)c2cccc(Oc3ccccc3)c2)[C@@H]1C=C(Br)Br [Deltamethrin]
[2]; cold solution, even at low temperature
  maximum concentration possible without recrystallization in the active solution: ≤ 20 % by weight

## CNC(=O)Oc1ccccc1OC(C)C [Propoxur]
[2]
  concentration dissolved in a stable manner in the solvent mixture: 56 % by weight of solution
